Test results published in paper PMC10585773, “Green synthesis of highly functionalized heterocyclic bearing pyrazole moiety for cancer-targeted chemo/radioisotope therapy” (BMC Chemistry, 2023).

How the values were obtained:
HepG2 = test: MTT assay, in-vitro cytotoxicity against HepG2; type: cell-based; conditions: Homo sapiens, HepG2 hepatocellular carcinoma cells, scale: 1–10 very strong, 11–20 strong, 21–50 moderate, 51–100 weak, above 100 non-cytotoxic
Source text: (§1) Hepatocellular carcinoma (HepG2), and colorectal carcinoma (HCT-116). The cell lines were obtained from ATCC via Holding company for biological products and vaccines (VACSERA), Cairo, Egypt.
(§2) The reagents RPMI-1640 medium, MTT and DMSO (sigma co., St. Louis, USA), Fetal Bovine serum (GIBCO, UK). 5-Fluorouracil was used as a standard anticancer drug for comparison.
(§3) HepG2 and (HCT-116 were used to determine the inhibitory effects of compounds on cell growth using the MTT assay. The relative cell viability in percentage was calculated as (A570 of treated samples/A570 of untreated sample) X 100.

HCT-116 = test: MTT assay, in-vitro cytotoxicity against HCT-116; type: cell-based; conditions: Homo sapiens, HCT-116 colorectal carcinoma cells, scale: 1–10 very strong, 11–20 strong, 21–50 moderate, 51–100 weak, above 100 non-cytotoxic
Source text: as §1, §2, §3

Row | Compound | IC50 (HepG2) [µM] | IC50 (HCT-116) [µM]
1 | N#Cc1c(N)nc2c(c(-c3ccccc3)nn2-c2ccccc2)c1N [Compound 2, 4,6-Diamino-1,3-diphenyl-1H-pyrazolo[3,4-b]pyridine-5-carbonitrile] | 9.2 ± 2.8 | 7.7 ± 1.8
2 | NC(=O)c1c(N)nc2c(c(-c3ccccc3)nn2-c2ccccc2)c1N [Compound 3, 4,6-Diamino-1,3-diphenyl-1H-pyrazolo[3,4-b]pyridine-5-carboxamide] | 22.8 ± 2.1 | 29.4 ± 2.3
3 | Nc1c(C(=O)O)[nH]c2c1c(-c1ccccc1)nn2-c1ccccc1 [Compound 4, 4-Amino-1,3-diphenyl-1,6-dihydropyrrolo[2,3-c]pyrazole-5-carboxylic acid] | 14.5 ± 2.8 | 15.2 ± 2.4
4 | Nc1n[nH]c2c1c(-c1ccccc1)nn2-c1ccccc1 [Compound 5, 4,6-Diphenyl-1,6-dihydropyrazolo[3,4-c]pyrazol-3-amine] | 8.8 ± 5.1 | 13.8 ± 3.9
5 | O=c1[nH]cc(F)c(=O)[nH]1 [Compound 5-Fu, 5-Fluorouracil, reference compound] | 7.86 ± 0.5 | 5.35 ± 0.3
6 | Nc1nc(=O)[nH]c2c1c(-c1ccccc1)nn2-c1ccccc1 [Compound 6, 4-Amino-1,3-diphenyl-1,7-dihydro-6H-pyrazolo[3,4-d]pyrimidin-6-one] | 91.4 ± 4.2 | 51 ± 2.7
7 | Nc1nc(=S)[nH]c2c1c(-c1ccccc1)nn2-c1ccccc1 [Compound 7, 4-Amino-1,3-diphenyl-1,7-dihydro-6H-pyrazolo[3,4-d]pyrimidine-6-thione] | 10.2 ± 2.1 | 13.1 ± 2.3
8 | CCOc1nc(-c2ccccc2)nc2c1c(-c1ccccc1)nn2-c1ccccc1 [Compound 8, 4-Ethoxy-1,3,6-triphenyl-1H-pyrazolo[3,4-d]pyrimidine] | 12.1 ± 5.1 | 17.4 ± 3.9
9 | Nc1nc(-c2c(-c3ccccc3)nn(-c3ccccc3)c2N)nc2c1c(-c1ccccc1)nn2-c1ccccc1 [Compound 9, 6-(5-Amino-1,3-diphenyl-1H-pyrazol-4-yl)-1,3-diphenyl-1H-pyrazolo[3,4-d]pyrimidin-4-amine] | 55.7 ± 2.7 | 33.6 ± 2.1
